Test results reported in patent US7294643B2, “UK-1 analogues: methods of preparation and use” (Board of Regents, The University of Texas System, priority 2002, dated 2007).

Tests used:
HL60 cells = assay: alamarBlue cytotoxicity assay, HL60; assay type: cell-based, human; settings: HL60, alamarBlue, 72 h
Protocol: (§1) Cytotoxicity Assays. Cell culture cytotoxicity assays were performed using the. alamarBlue method, as described by Ahmed et al., J. Immun. Methods 1994, 170, 211-224, which is incorporated herein by reference. Briefly, aliquots of 100 μL of cell suspension (1.0-2.5×10^3 cells) was placed in 96-well microtiter plates in an atmosphere of 5% CO2 at 37° C. After 24 hours, 100 μL of culture medium and 2 μL of compound in vehicle (culture media with 40% pyridine) or vehicle alone were added, and the plates incubated an additional 72 hours. The final pyridine concentration in all cases was 0.4%; at this pyridine concentration there was no affect on the growth of cells compared to cells in culture media without added pyridine. […] After the culture media had been removed from each well, 200 μL of fresh media and 20 μL of 90% alamarBlue reagent were added, followed by an additional 6 h incubation. The fluorescent intensity was measured using a Spectrafluor Plus plate reader with excitation at 530 nm and emission at 590 nm. Results are reported as IC50 values, the average concentration required to produce a decrease of fluorescent intensity of 50% relative to vehicle-treated controls in two separate determinations.

PC-3 cells = assay: alamarBlue cytotoxicity assay, PC-3; assay type: cell-based, human; settings: PC-3, alamarBlue
Protocol: as §1

DU145 = assay: alamarBlue cytotoxicity assay, DU145; assay type: cell-based; settings: Homo sapiens, DU-145
Protocol: as §1

SKBR3 = assay: alamarBlue cytotoxicity assay, SKBR3; assay type: cell-based; settings: Homo sapiens, SK-BR-3
Protocol: as §1

A549 = assay: alamarBlue cytotoxicity assay, A549; assay type: cell-based; settings: Homo sapiens
Protocol: as §1

SK-N-AS = assay: alamarBlue cytotoxicity assay, SK-N-AS; assay type: cell-based; settings: Homo sapiens
Protocol: as §1

SK-N-D7 = assay: alamarBlue cytotoxicity assay, SK-N-D7; assay type: cell-based
Protocol: as §1

SK-N-F1 = assay: alamarBlue cytotoxicity assay, SK-N-F1; assay type: cell-based
Protocol: as §1

SK-N-MC = assay: alamarBlue cytotoxicity assay, SK-N-MC; assay type: cell-based; settings: Homo sapiens
Protocol: as §1

CHP-212 = assay: alamarBlue cytotoxicity assay, CHP-212; assay type: cell-based; settings: Homo sapiens; CHP-212, alamarBlue
Protocol: as §1

[1] = tested on: IMR-32 neuroblastoma cell line; assay: alamarBlue cytotoxicity assay, IMR-32; assay type: cell-based; settings: Homo sapiens
Protocol: as §1

[2] = tested on: NGP neuroblastoma cell line; assay: alamarBlue cytotoxicity assay, NGP; assay type: cell-based
Protocol: as §1

[3] = alamarBlue cytotoxicity, range over three cell lines; assay type: cell-based; settings: human; range of concentrations required to inhibit growth of MCF-7, HT-29, and PC-3 cells by 50%
Protocol: as §1

[4] = Metal ion binding by continuous variation, Mg2+; settings: Mg^2+, methanol, 1:1 complex
Protocol: (§2) Previous work indicated the metal ion binding mechanism of UK-1, so the method of continuous variation was used to determine the ability of selected UK-1analogues to bind a variety of metal ions. Methanolic solutions of UK-1 or UK-1 analogues and metal ion salts [Ca(NO3)2, Mg(NO3)2, Zn(NO3)2, or Fe(NO3)3] at various molar ratios, and 20 μM combined total concentration, were prepared and the absorbance at 418 nm was determined. […] Compound 2.1 does bind with Ca^2+ and Zn^2+ better than UK-1.
(§3) Continuous variation plots. A 100 μM solution of UK-1 or analogue and 100 AM solutions of Ca(NO3)2, Mg(NO3)2, Zn(NO3)2, or Fe(NO3)3 were prepared in methanol. From these stock solutions, 15 samples (1 mL) of varying mole fraction of the metal ion were prepared at a constant, combined concentration of 20 μM for the ligand and the metal ion. The change in absorbance was monitored from 500 to 200 nm for each sample using as a reference a 1 mL solution containing the same concentration of ligand as the sample being measured but without the metal ion. The maximum absorbance change was typically around 418 nm but varied somewhat for each metal ion. The absorbance at 418 nm was plotted as a function of the mole fraction of the metal ion and the maximum absorbance change was determined. The absorbance of a sample containing the metal ion concentration corresponding to this maximum change and a 15 fold excess of metal ion at this ligand concentration, subtracted from a reference containing the same concentration of ligand but no metal ion was used to normalize the curve and obtain the conditional formation constant as described in the paper to Likussar, W.; Boltz, D. F. Anal. Chem. 1971, 43, 1265-1272, which is incorporated herein by reference.

[5] = Metal ion binding by continuous variation, Ca2+; settings: Ca^2+, methanol, 1:1 complex
Protocol: as §2, §3

[6] = Metal ion binding by continuous variation, Zn2+; settings: Zn^2+, methanol, 1:1 complex
Protocol: as §2, §3

[7] = Metal ion binding by continuous variation, Fe3+; settings: Fe^3+, methanol, 1:1 complex
Protocol: as §2, §3

Supercoiled ΦX174 DNA = assay: Cleavage of supercoiled DNA, agarose gel electrophoresis; assay type: biochemical; settings: 37° C.
Protocol: Supercoiled Φ[…] DNA (50 μM) was incubated for 24 hrs in pH 8 Tris buffer (10 mM) at 37° C. with UK-1 (15-25 μM), H2O2 (5 μM-5 mM), or NiCl2 (15-25 μM), or a combination of these agents. Agarose gel electrophoresis was carried out to resolve the DNA products. […] There was an increase in the proportion of nicked, relaxed DNA product in the presence of an oxidant (e.g., H2O2), but no linear DNA that would indicate double-stranded DNA cleavage. […] FIG. 5 depicts cleavage of supercoiled DNA by UK-1 in the presence of oxidizing agents and metal ions. Supercoiled Φ[…] DNA (50 μM bp) was incubated with UK-1 (23 μM), NiCl2 (23 μM), H2O2 (5 mM), or combinations of these agents at 37° C. for 24 h and the DNA products subjected to agarose gel electrophoresis with ethidium bromide staining. Lanes: C, untreated supercoiled DNA; 1, DNA+UK-1; 2, DNA+NiCl2; 3, DNA+H2O2; 4, DNA+UK-1+NiCl2; 5, DNA+UK-1+H2O2; 6, DNA+UK-1+NiCl2+H2O2; 7, DNA+NiCl2+H2O2.

yeast, or fungi = settings: yeast, or fungi, concentrations as large as 250 μM; cited from earlier work

SMILES: COC(=O)c1cccc2oc(-c3cccc4oc(-c5ccccc5O)nc34)nc12 [UK-1]
- IC50 (HL60 cells): 400 nM
- IC50 (HL60 cells; Homo sapiens, HL-60, 72 h): 320 nM
- IC50 (PC-3 cells; Homo sapiens, PC-3, 72 h): 400 nM
- IC50 (PC-3 cells; 72 h): 320 nM
- IC50 (DU145): 200 nM
- IC50 (SKBR3): 100 nM
- IC50 (A549): 1900 nM
- IC50 (SK-N-AS): 24000 nM
- IC50 (SK-N-D7): 170 nM
- IC50 (SK-N-F1): 7000 nM
- IC50 (SK-N-MC): 1100 nM
- IC50 (CHP-212): 12000 nM
- IC50 ([1]; IMR-32, IMR-32, alamarBlue): 60 nM
- IC50 ([1]; IMR-32, IMR-32, bound stated in text): < 100 nM
- IC50 ([2]; alamarBlue): 20 nM
- IC50 ([2]; bound stated): < 100 nM
- IC50 at 72 h [3]: 320 to 65000 nM
- Association constant for metal ion binding [4]: 2e+06 M⁻¹
- Association constant for metal ion binding [5]: 40000 M⁻¹
- Association constant for metal ion binding [6]: 2e+06 M⁻¹
- Association constant for metal ion binding [7]: 250000 M⁻¹
- DNA cleavage (Supercoiled ΦX174 DNA; UK-1 and an oxidant (H2O2), 24 hrs): significantly more DNA cleavage
- DNA cleavage (Supercoiled ΦX174 DNA; UK-1 only, 24 hrs, pH 8 Tris buffer): no evidence of DNA cleavage
- DNA cleavage (Supercoiled ΦX174 DNA; combination of UK-1, H2O2, and NiCl2, 24 hrs): particularly active in inducing DNA cleavage
- growth inhibition (yeast, or fungi): does not inhibit the growth
